This passage reports inhibition, IC50 and fold change (FC) results from ChEMBL document CHEMBL4152374, “A new phenolic series of indenopyridinone as topoisomerase inhibitors: Design, synthesis, and structure-activity relationships” (Bioorg Med Chem, 2018).

For assay [1], the target named is T1, DNA topoisomerase 1 (Homo sapiens) (UniProt P11387).
T1 sequence (whole entry): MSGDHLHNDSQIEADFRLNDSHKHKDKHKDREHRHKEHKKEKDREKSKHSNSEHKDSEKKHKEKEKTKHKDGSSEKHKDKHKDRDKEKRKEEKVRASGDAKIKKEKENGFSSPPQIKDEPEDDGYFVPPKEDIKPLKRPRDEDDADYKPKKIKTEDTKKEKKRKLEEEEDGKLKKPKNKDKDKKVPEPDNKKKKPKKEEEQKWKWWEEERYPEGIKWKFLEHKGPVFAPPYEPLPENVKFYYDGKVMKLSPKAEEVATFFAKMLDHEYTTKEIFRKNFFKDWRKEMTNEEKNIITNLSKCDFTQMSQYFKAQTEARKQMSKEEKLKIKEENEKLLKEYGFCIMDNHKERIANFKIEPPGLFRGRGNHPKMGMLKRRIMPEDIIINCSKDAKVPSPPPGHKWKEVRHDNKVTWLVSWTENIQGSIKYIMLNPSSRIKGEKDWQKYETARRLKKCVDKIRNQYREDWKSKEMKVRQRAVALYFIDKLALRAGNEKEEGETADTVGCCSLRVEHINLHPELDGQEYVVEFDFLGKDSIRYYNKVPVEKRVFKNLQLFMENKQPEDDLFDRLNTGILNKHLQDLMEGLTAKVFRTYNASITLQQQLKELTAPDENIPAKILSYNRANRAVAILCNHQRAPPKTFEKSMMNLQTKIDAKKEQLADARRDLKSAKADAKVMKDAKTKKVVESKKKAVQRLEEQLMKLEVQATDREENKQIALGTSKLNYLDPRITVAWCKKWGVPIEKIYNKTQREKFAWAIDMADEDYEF
The assay can be described thus: Inhibition of human topoisomerase 1 using supercoiled pBR322 plasmid DNA as substrate at 100 uM after 30 mins by agarose gel electrophoresis method relative to control.

Assay [2] deals with DNA topoisomerase 2-alpha (Homo sapiens) (UniProt P11388). The assay can be described thus: Inhibition of human topoisomerase 2-alpha using supercoiled pBR322 plasmid DNA as substrate at 100 uM after 30 mins by agarose gel electrophoresis method relative to control.
The target is the same in assay [3]. The assay can be described thus: Inhibition of human topoisomerase 2-alpha using supercoiled pBR322 plasmid DNA as substrate at 20 uM after 30 mins by agarose gel electrophoresis method relative to control.
The test system of the next assay is HCT-15. The assay can be described thus: Antiproliferative activity against human HCT15 cells after 72 hrs by EZ-CYTOX reagent based assay. The format is functional, cell-based. The settings on record: HCT-15, 72 h.
The next assay has as its system T47D. The assay can be described thus: Antiproliferative activity against human T47D cells after 72 hrs by EZ-CYTOX reagent based assay. It is filed as functional, cell-based.
For the next assay, the system named is HeLa. Briefly: Antiproliferative activity against human HeLa cells after 72 hrs by EZ-CYTOX reagent based assay. The format is functional, cell-based.
Assay [4] deals with T1, DNA topoisomerase 1 (Homo sapiens). Briefly: Inhibition of human topoisomerase 1 using supercoiled pBR322 plasmid DNA as substrate at 20 uM after 30 mins by agarose gel electrophoresis method relative to control.
Assay [5] concerns the target DNA topoisomerase 2-alpha (Homo sapiens) (UniProt P11388). Briefly: Inhibition of human topoisomerase 2-alpha using supercoiled pBR322 plasmid DNA as substrate at 100 uM after 30 mins by agarose gel electrophoresis method relative to etoposide.
Assay [6] shares this target. The assay can be described thus: Inhibition of human topoisomerase 2-alpha using supercoiled pBR322 plasmid DNA as substrate at 20 uM after 30 mins by agarose gel electrophoresis method relative to etoposide.
A further assay has as its system Calf thymus DNA. The assay can be described thus: Inhibition of EtBr binding to calf thymus DNA up to 40 uM by fluorescence spectroscopy. The format is nucleic-acid assay. The settings on record: Bos taurus.

SMILES strings stand for the structures. Where a name gives a salt, the structure may show the parent alone. Where only a bound is given, the exact number is not on record here.

Chain of DNA topoisomerase 2-alpha (Homo sapiens) (P11388 whole entry): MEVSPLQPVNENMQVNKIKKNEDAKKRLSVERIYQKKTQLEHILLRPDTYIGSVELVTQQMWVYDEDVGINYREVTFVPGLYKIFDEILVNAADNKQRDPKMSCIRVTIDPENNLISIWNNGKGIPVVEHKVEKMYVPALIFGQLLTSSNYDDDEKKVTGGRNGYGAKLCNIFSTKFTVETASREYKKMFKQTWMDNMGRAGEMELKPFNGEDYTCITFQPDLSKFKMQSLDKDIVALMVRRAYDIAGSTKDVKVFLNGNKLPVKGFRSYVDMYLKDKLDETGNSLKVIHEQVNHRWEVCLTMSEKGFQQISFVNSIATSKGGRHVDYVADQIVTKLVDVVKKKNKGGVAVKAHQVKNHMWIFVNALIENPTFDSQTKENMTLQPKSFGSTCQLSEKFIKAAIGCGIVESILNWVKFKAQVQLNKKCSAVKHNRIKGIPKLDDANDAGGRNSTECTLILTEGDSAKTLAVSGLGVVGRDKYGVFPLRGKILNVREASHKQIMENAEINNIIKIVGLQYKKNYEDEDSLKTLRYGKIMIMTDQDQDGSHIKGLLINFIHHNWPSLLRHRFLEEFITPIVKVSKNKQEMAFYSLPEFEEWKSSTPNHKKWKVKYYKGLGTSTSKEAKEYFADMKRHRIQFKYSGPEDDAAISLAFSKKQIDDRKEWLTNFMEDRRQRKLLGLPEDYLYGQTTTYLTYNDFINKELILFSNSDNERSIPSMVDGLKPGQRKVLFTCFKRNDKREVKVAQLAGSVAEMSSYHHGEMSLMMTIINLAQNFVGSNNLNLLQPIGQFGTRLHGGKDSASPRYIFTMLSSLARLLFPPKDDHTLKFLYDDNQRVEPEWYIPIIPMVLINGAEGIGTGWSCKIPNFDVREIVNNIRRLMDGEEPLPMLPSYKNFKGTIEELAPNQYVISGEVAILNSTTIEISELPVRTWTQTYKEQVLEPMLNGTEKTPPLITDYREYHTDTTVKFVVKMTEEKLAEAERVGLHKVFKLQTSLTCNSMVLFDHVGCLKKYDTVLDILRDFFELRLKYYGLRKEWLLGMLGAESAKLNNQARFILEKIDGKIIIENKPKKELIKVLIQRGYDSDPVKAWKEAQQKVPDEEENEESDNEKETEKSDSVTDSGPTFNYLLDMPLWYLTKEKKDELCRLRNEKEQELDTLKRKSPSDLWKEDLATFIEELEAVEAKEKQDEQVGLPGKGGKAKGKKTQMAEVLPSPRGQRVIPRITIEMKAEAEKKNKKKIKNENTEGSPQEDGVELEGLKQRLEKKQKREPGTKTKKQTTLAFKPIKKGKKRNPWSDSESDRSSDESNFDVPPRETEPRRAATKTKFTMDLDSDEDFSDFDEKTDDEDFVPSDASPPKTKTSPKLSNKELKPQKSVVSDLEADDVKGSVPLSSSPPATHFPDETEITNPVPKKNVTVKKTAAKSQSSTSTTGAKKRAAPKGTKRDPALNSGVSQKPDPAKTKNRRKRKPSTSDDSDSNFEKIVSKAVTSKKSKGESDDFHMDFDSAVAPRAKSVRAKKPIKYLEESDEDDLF

For the compound `Oc1cccc(-c2cc(-c3cccc(O)c3)c3c(n2)-c2ccccc2C3O)c1` (configuration not stated), the inhibition (as a rule, the change of the read-out against control, counted positive when it falls) in assay [1] came to 20.1%; in assay [2], 55.1%; in [3], 17.8%. Further, the IC50 – broadly, the concentration that inhibits the measured activity by half – in the assay with HCT-15 turned out to be 6.2 µM; in the assay with T47D it was 1.61 µM; with HeLa, 6.91 µM.

Turning to `Oc1ccc(-c2cc(-c3ccccc3)nc3c2C(O)c2ccccc2-3)cc1` (configuration not stated), the inhibition in assay [1] was found to be 63.9%; in assay [4] it was 0%; in assay [2], 53.6%; in assay [3], 22.6%. Moreover, the IC50 in the assay with HCT-15 was > 50 µM; in the assay with T47D, 3.25 µM; with HeLa it was > 50 µM.

Take `O=C1c2ccccc2-c2nc(-c3ccccc3O)cc(-c3ccccc3O)c21`: the inhibition in assay [1] is 0%; in [2], 32.8%; in [3], 9.9%. For the same compound, the IC50 with HCT-15, with T47D and in the assay with HeLa was > 50 µM in each case. Also, the values for the fold change (FC) in [5] and in assay [6] were 0.44 and 0.2, respectively.

For `Oc1ccc(-c2cc(-c3ccccc3O)c3c(n2)-c2ccccc2C3O)cc1` (configuration not stated), the inhibition in assay [1] was found to be 11.5%; in assay [2], 57.7%; in assay [3], 12.1%. Besides, the IC50 in the assay with HCT-15 stood at 13 µM; in the assay with T47D, 4.28 µM; in the assay on HeLa it was 10.8 µM.

`O=C1c2ccccc2-c2nc(-c3ccccc3)cc(-c3cccc(O)c3)c21`: the figures for the inhibition in assay [1] and in assay [2] were 7.4% and 9.3%, respectively. For the same compound, the results for the IC50 in the assay with HCT-15, in the assay on T47D and with HeLa were 2.48 µM, 1.18 µM and 2.24 µM, respectively. Besides, the fold change (FC) in assay [5] turned out to be 0.12.

For `COc1cccc2c1C(=O)c1c(O)c3c(c(O)c1C2=O)C[C@@](O)(C(=O)CO)C[C@@H]3O[C@H]1C[C@H](N)[C@H](O)[C@H](C)O1` [DOXORUBICIN HYDROCHLORIDE], the IC50 with T47D was 0.31 µM; with HeLa it was 1.5 µM.

With `COc1cc(NS(C)(=O)=O)ccc1Nc1c2ccccc2nc2ccccc12`, the inhibition result with Calf thymus DNA is “Dose-dependent effect”.

`COc1cc([C@@H]2c3cc4c(cc3[C@@H](O[C@@H]3O[C@@H]5CO[C@@H](C)O[C@H]5[C@H](O)[C@H]3O)[C@H]3COC(=O)[C@H]23)OCO4)cc(OC)c1O` [ETOPOSIDE]: the half-inhibitory concentration (IC50) was found to be 2.94 µM in the assay on HCT-15, 0.4 µM with T47D and 9.21 µM in the assay with HeLa.

On to `O=C1c2ccccc2-c2nc(-c3ccccc3)cc(-c3ccccc3O)c21`, for which the results for the inhibition in [1] and in assay [2] were 0% and 23.8%, respectively. The IC50 in the assay on HCT-15 worked out at 2.32 µM; with T47D, 1.33 µM; with HeLa, 2.58 µM. The fold change (FC) in assay [5] was 0.32.

Regarding `O=C1c2ccccc2-c2nc(-c3ccccc3O)cc(-c3cccc(O)c3)c21`, the inhibition amounted to 0% in [1], 86.5% in [2] and 12.8% in assay [3]. For the same compound, the IC50 with HCT-15 is 6.09 µM; with T47D, > 50 µM; in the assay with HeLa it was 4.84 µM. For the same compound, the fold change (FC) in assay [5] was 1.15 to 1.23; in assay [6], 0.26.

For the compound `O=C1c2ccccc2-c2nc(-c3ccccc3)cc(-c3ccccc3)c21`, the inhibition was 5.8% in [1] and 25% in assay [2]. The IC50 with HCT-15 was > 50 µM; with T47D, 6.5 µM; with HeLa, > 50 µM.

Take `Oc1cccc(-c2cc(-c3ccccc3)c3c(n2)-c2ccccc2C3O)c1` (configuration not stated): the inhibition in assay [1] came out at 0%; in [2], 40.7%; in assay [3], 0.3%. Moreover, the IC50 with HCT-15, in the assay on T47D and in the assay with HeLa was > 50 µM each time.

In the case of `O=C1c2ccccc2-c2nc(-c3ccc(O)cc3)cc(-c3ccc(O)cc3)c21`, the inhibition in assay [1] stood at 0%; in assay [2] it was 100%; in assay [3], 30.5%. Further, the IC50 with HCT-15 came out at 1.87 µM; in the assay with T47D, 0.37 µM; in the assay with HeLa it was 4.72 µM. The figures for the fold change (FC) in [5] and in [6] were 1.33 to 1.42 and 0.61, respectively.

In the case of `O=C1c2ccccc2-c2nc(-c3ccc(O)cc3)cc(-c3cccc(O)c3)c21`, the inhibition worked out at 75.5% in assay [1], 7.5% in assay [4], 71.9% in [2] and 60.5% in [3]. In addition, the IC50 is 1.96 µM in the assay on HCT-15, 1.49 µM with T47D and 4.32 µM with HeLa. Besides, the values for the fold change (FC) in assay [5] and in [6] were 1.02 and 1.38, respectively.

`O=C1c2ccccc2-c2nc(-c3cccc(O)c3)cc(-c3ccccc3)c21`: the inhibition worked out at 0.5% in [1] and 22.5% in assay [2]. The IC50 with HCT-15, with T47D and with HeLa was > 50 µM each time. Besides, in assay [5], the fold change (FC) amounted to 0.32.

With `O=C1c2ccccc2-c2nc(-c3cccc(O)c3)cc(-c3ccccc3O)c21`, the inhibition amounted to 0% in assay [1] and 2.6% in assay [2]. In addition, the IC50 is 1.36 µM in the assay on HCT-15, 0.11 µM in the assay with T47D and 1.52 µM in the assay on HeLa. Also, the fold change (FC) in assay [5] came to 0.03.

Consider `OC1c2ccccc2-c2nc(-c3ccccc3)cc(-c3ccccc3)c21` (configuration not stated), for which the inhibition in assay [1] is 81%; in [4], 0%; in assay [2], 21.5%. The IC50 in the assay with HCT-15, in the assay with T47D and in the assay with HeLa was > 50 µM throughout.

Turning to `O=C1c2ccccc2-c2nc(-c3ccccc3O)cc(-c3ccc(O)cc3)c21`, the inhibition was found to be 0% in assay [1] and 5.2% in assay [2]. The IC50 in the assay on HCT-15, in the assay on T47D and in the assay with HeLa was > 50 µM each time. Further, in [5], the fold change (FC) turned out to be 0.07.

As for `CC[C@@]1(O)C(=O)OCc2c1cc1n(c2=O)Cc2cc3ccccc3nc2-1` [CAMPTOTHECIN], the IC50 with HCT-15 is 0.05 µM; in the assay on HeLa it was 1.37 µM.

In the case of `Oc1ccc(-c2cc(-c3cccc(O)c3)c3c(n2)-c2ccccc2C3O)cc1` (configuration not stated), the inhibition was found to be 71.9% in assay [1], 61.7% in [4], 60.9% in assay [2] and 26.7% in assay [3]. The IC50 is 9.76 µM in the assay with HCT-15, 1.7 µM in the assay on T47D and 7.08 µM in the assay on HeLa.

As to `O=C1c2ccccc2-c2nc(-c3ccccc3O)cc(-c3ccccc3)c21`, the inhibition in assay [1] came out at 0%; in assay [2], 4.9%. Also, the values for the IC50 with HCT-15, with T47D and with HeLa were > 50 µM, 10.5 µM and 31.7 µM, respectively. Besides, the fold change (FC) in assay [5] came out at 0.06.

For the compound `O=C1c2ccccc2-c2nc(-c3cccc(O)c3)cc(-c3cccc(O)c3)c21`, the inhibition in assay [1] was determined as 25.7%; in [2] it was 68.9%; in assay [3], 20.8%. Further, the IC50 in the assay with HCT-15 was > 50 µM; in the assay on T47D it was 1.24 µM; with HeLa, > 50 µM. Also, the figures for the fold change (FC) in [5] and in assay [6] were 0.98 and 0.47, respectively.

Consider `O=C1c2ccccc2-c2nc(-c3ccc(O)cc3)cc(-c3ccccc3O)c21`, for which the inhibition in [1] came to 60%; in assay [4], 0%; in assay [2], 72.8%; in [3] it was 12%. The values for the IC50 in the assay with HCT-15, with T47D and in the assay on HeLa were 2.82 µM, 0.42 µM and 2.3 µM, respectively. Further, the fold change (FC) in [5] amounted to 1.04; in assay [6], 0.27.

For the compound `O=C1c2ccccc2-c2nc(-c3ccccc3)cc(-c3ccc(O)cc3)c21`, the inhibition in [1] is 50%; in assay [4] it was 0%; in assay [2] it was 63.3%; in [3], 15.2%. Further, the IC50 with HCT-15, in the assay with T47D and with HeLa was > 50 µM in each case. In addition, the results for the fold change (FC) in assay [5] and in [6] were 0.9 and 0.35, respectively.

With `O=C1c2ccccc2-c2nc(-c3ccc(O)cc3)cc(-c3ccccc3)c21`, the inhibition in assay [1] is 0%; in [2], 23.3%. The IC50 turned out to be 2.18 µM with HCT-15, 1.4 µM in the assay with T47D and 2.25 µM with HeLa. Moreover, the fold change (FC) in assay [5] was found to be 0.31.
